Key:
MalT [1] = target: T1, MalT (Escherichia coli, UniProt P06993, M96C); test: analytical size-exclusion chromatography (multimerization); assay type: biochemical; details: reducing conditions
T1 construct: full-length, His6-tagged (pOM206, pET24a(+) derivative), purified from E. coli BL21 ΔmalT

MalT [2] = target: T2, MalT (Escherichia coli, UniProt P06993, R171E); test: limited proteolysis (proteinase K); assay type: biochemical; details: 22 mM maltotriose; 0.44 mM ATP or ADP; pH 8.0, 25 °C
T2 construct: full-length, His6-tagged (pOM206, pET24a(+) derivative), purified from E. coli BL21 ΔmalT

MalT [3] = target: T3, MalT (Escherichia coli, UniProt P06993, M96T/R171E); test: limited proteolysis (proteinase K); assay type: biochemical; details: 22 mM maltotriose; 0.44 mM ATP or ADP; pH 8.0, 25 °C
T3 construct: full-length, His6-tagged (pOM206, pET24a(+) derivative), purified from E. coli BL21 ΔmalT

MalT [4] = target: T4, MalT (Escherichia coli, UniProt P06993, H562C); test: analytical size-exclusion chromatography (multimerization); assay type: biochemical; details: reducing conditions
T4 construct: full-length, His6-tagged (pOM206, pET24a(+) derivative), purified from E. coli BL21 ΔmalT

MalT [5] = target: T5, MalT (Escherichia coli, UniProt P06993); test: analytical size-exclusion chromatography (multimerization) and limited proteolysis; assay type: biochemical; details: with ATP; inducer; pH 8.0
T5 construct: full-length, His6-tagged (pOM206, pET24a(+) derivative), purified from E. coli BL21 ΔmalT

PH0952ΔN = target: T6, PH0952ΔN (Pyrococcus horikoshii, UniProt O58663); test: X-ray crystal structure; details: 3.4 Å; ADP present in purification buffer; nucleotide-binding site of the NOD
T6 construct: gene PH0952; NBD 102-262, HD 263-316, WHD 317-393, arm 394-496, TPR sensor 497-748; from E. coli Rosetta (DE3), intein tag cleaved; monomeric resting form

[6] = target: the molecule itself; test: SEC; analytical Superdex 200 PC3.2/30, room temperature; reducing conditions; with the inducer maltotriose (Supplementary Figure S9)
[7] = target: the molecule itself; test: SEC; analytical Superdex 200, room temperature; Tris-HCl 50 mM pH 8.0, 10% sucrose, 0.033 M K3 citrate, 10 mM Mg acetate, 0.1 mM EDTA, 1 mM DTT, 0.1 mM ADP; no maltotriose; high protein concentration (54 μM)

T3 sequence (P06993 whole entry M96T/R171E): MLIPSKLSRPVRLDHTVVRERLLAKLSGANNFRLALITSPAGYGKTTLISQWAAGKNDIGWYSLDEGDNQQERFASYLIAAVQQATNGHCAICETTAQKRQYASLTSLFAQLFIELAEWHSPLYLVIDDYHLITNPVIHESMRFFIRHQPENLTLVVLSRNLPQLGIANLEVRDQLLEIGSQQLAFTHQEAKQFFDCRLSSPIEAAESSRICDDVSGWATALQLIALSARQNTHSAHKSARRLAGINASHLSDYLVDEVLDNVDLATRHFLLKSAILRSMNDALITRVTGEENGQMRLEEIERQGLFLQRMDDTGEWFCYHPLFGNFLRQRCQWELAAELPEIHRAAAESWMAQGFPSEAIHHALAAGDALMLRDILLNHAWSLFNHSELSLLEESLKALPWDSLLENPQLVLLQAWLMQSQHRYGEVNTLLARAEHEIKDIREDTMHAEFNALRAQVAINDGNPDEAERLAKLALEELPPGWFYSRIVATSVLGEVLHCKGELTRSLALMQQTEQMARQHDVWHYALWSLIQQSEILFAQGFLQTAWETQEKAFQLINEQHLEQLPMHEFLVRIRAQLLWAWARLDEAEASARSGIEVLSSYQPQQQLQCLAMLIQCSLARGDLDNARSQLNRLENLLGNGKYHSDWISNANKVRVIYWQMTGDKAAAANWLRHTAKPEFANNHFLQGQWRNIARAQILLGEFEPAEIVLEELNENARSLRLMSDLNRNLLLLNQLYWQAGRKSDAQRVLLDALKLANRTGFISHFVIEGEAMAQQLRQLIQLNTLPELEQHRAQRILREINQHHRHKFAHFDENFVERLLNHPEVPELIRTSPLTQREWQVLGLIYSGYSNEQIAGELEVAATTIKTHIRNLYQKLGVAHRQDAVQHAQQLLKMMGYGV
T6 sequence (O58663 entry or part of it, stated change not applied): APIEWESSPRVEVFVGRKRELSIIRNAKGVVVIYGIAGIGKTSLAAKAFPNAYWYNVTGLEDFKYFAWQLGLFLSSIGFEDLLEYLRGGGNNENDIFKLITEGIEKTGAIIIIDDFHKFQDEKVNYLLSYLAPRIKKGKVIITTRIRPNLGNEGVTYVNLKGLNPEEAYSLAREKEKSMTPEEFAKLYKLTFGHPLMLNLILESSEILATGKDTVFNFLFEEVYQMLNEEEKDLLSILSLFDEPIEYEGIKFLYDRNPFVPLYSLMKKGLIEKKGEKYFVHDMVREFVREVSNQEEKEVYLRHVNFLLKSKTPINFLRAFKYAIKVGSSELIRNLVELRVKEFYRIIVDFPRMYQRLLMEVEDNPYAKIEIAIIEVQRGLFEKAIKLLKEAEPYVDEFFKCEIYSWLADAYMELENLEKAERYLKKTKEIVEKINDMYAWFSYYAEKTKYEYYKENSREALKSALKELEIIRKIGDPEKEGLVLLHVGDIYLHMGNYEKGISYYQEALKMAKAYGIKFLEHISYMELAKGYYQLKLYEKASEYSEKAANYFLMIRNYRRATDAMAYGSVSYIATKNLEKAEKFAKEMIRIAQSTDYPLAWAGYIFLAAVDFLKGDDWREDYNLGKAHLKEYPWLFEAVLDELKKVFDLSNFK
T2 sequence (P06993 whole entry R171E): as the sequence (P06993 whole entry M96T/R171E) above, with T96M counted along it

For `OC[C@H]1O[C@H](O[C@H]2[C@H](O)[C@@H](O)[C@@H](O[C@H]3[C@H](O)[C@@H](O)C(O)O[C@@H]3CO)O[C@@H]2CO)[C@H](O)[C@@H](O)[C@@H]1O` (some centres unmarked) [maltotriose], the “analytical size-exclusion chromatography (multimerization)” value (MalT [1]) was “the four proteins were monomeric in the absence of the inducer, maltotriose”, the “limited proteolysis (proteinase K)” value (MalT [2]) was “underwent the same maltotriose-induced conformational changes as MalT” and the “limited proteolysis (proteinase K)” value (MalT [3]) was “underwent the same maltotriose-induced conformational changes as MalT”. For the same molecule, the “analytical size-exclusion chromatography (multimerization)” value (MalT [4]) was “the four proteins were monomeric in the absence of the inducer, maltotriose” and the “analytical size-exclusion chromatography (multimerization) and limited proteolys” value (MalT [5]) was “responded to its presence by multimerizing to the same extent”.

For `Nc1ncnc2c1ncn2[C@@H]1O[C@H](COP(=O)(O)OP(=O)(O)O)[C@@H](O)[C@H]1O` [ADP], the X-ray crystal structure (PH0952ΔN) was “a ligand was clearly visible in the experimental electron density map”.

B1: His6-tagged MalT (Escherichia coli maltose system regulator), wild type (natural protein, E. coli, UniProt P06993 1-901, looked up)
chain: MLIPSKLSRPVRLDHTVVRERLLAKLSGANNFRLALITSPAGYGKTTLISQWAAGKNDIGWYSLDEGDNQQERFASYLIAAVQQATNGHCAICETMAQKRQYASLTSLFAQLFIELAEWHSPLYLVIDDYHLITNPVIHESMRFFIRHQPENLTLVVLSRNLPQLGIANLRVRDQLLEIGSQQLAFTHQEAKQFFDCRLSSPIEAAESSRICDDVSGWATALQLIALSARQNTHSAHKSARRLAGINASHLSDYLVDEVLDNVDLATRHFLLKSAILRSMNDALITRVTGEENGQMRLEEIERQGLFLQRMDDTGEWFCYHPLFGNFLRQRCQWELAAELPEIHRAAAESWMAQGFPSEAIHHALAAGDALMLRDILLNHAWSLFNHSELSLLEESLKALPWDSLLENPQLVLLQAWLMQSQHRYGEVNTLLARAEHEIKDIREDTMHAEFNALRAQVAINDGNPDEAERLAKLALEELPPGWFYSRIVATSVLGEVLHCKGELTRSLALMQQTEQMARQHDVWHYALWSLIQQSEILFAQGFLQTAWETQEKAFQLINEQHLEQLPMHEFLVRIRAQLLWAWARLDEAEASARSGIEVLSSYQPQQQLQCLAMLIQCSLARGDLDNARSQLNRLENLLGNGKYHSDWISNANKVRVIYWQMTGDKAAAANWLRHTAKPEFANNHFLQGQWRNIARAQILLGEFEPAEIVLEELNENARSLRLMSDLNRNLLLLNQLYWQAGRKSDAQRVLLDALKLANRTGFISHFVIEGEAMAQQLRQLIQLNTLPELEQHRAQRILREINQHHRHKFAHFDENFVERLLNHPEVPELIRTSPLTQREWQVLGLIYSGYSNEQIAGELEVAATTIKTHIRNLYQKLGVAHRQDAVQHAQQLLKMMGYGV
notes: MalT, E. coli, His-tagged version encoded by pOM206 (pET24a(+) derivative); Purified in two buffers (with ATP/KCl; or K3 citrate without nucleotide) to serve as control for the variants; Details of the plasmid are in the Supplementary Materials and Methods; also called wt MalT; wild-type MalT; source: E. coli pop8012 (a BL21 ΔmalT strain) with pOM206, purified (nickel-agarose chromatography, …)
B1: binds [6].

B2: His6-tagged MalT^H562C (natural protein, E. coli, UniProt P06993 1-901, looked up)
chain: MLIPSKLSRPVRLDHTVVRERLLAKLSGANNFRLALITSPAGYGKTTLISQWAAGKNDIGWYSLDEGDNQQERFASYLIAAVQQATNGHCAICETMAQKRQYASLTSLFAQLFIELAEWHSPLYLVIDDYHLITNPVIHESMRFFIRHQPENLTLVVLSRNLPQLGIANLRVRDQLLEIGSQQLAFTHQEAKQFFDCRLSSPIEAAESSRICDDVSGWATALQLIALSARQNTHSAHKSARRLAGINASHLSDYLVDEVLDNVDLATRHFLLKSAILRSMNDALITRVTGEENGQMRLEEIERQGLFLQRMDDTGEWFCYHPLFGNFLRQRCQWELAAELPEIHRAAAESWMAQGFPSEAIHHALAAGDALMLRDILLNHAWSLFNHSELSLLEESLKALPWDSLLENPQLVLLQAWLMQSQHRYGEVNTLLARAEHEIKDIREDTMHAEFNALRAQVAINDGNPDEAERLAKLALEELPPGWFYSRIVATSVLGEVLHCKGELTRSLALMQQTEQMARQHDVWHYALWSLIQQSEILFAQGFLQTAWETQEKAFQLINEQCLEQLPMHEFLVRIRAQLLWAWARLDEAEASARSGIEVLSSYQPQQQLQCLAMLIQCSLARGDLDNARSQLNRLENLLGNGKYHSDWISNANKVRVIYWQMTGDKAAAANWLRHTAKPEFANNHFLQGQWRNIARAQILLGEFEPAEIVLEELNENARSLRLMSDLNRNLLLLNQLYWQAGRKSDAQRVLLDALKLANRTGFISHFVIEGEAMAQQLRQLIQLNTLPELEQHRAQRILREINQHHRHKFAHFDENFVERLLNHPEVPELIRTSPLTQREWQVLGLIYSGYSNEQIAGELEVAATTIKTHIRNLYQKLGVAHRQDAVQHAQQLLKMMGYGV
notes: MalT, E. coli, His-tagged, pOM206 derivative; source: E. coli pop8012 (a BL21 ΔmalT strain) with a pOM206 derivative, purified (nickel-agarose chromatography, Superdex 200)
B2: binds [6].

B3: His6-tagged MalT^M96C,H562C (natural protein, E. coli, UniProt P06993 1-901, looked up)
chain: MLIPSKLSRPVRLDHTVVRERLLAKLSGANNFRLALITSPAGYGKTTLISQWAAGKNDIGWYSLDEGDNQQERFASYLIAAVQQATNGHCAICETCAQKRQYASLTSLFAQLFIELAEWHSPLYLVIDDYHLITNPVIHESMRFFIRHQPENLTLVVLSRNLPQLGIANLRVRDQLLEIGSQQLAFTHQEAKQFFDCRLSSPIEAAESSRICDDVSGWATALQLIALSARQNTHSAHKSARRLAGINASHLSDYLVDEVLDNVDLATRHFLLKSAILRSMNDALITRVTGEENGQMRLEEIERQGLFLQRMDDTGEWFCYHPLFGNFLRQRCQWELAAELPEIHRAAAESWMAQGFPSEAIHHALAAGDALMLRDILLNHAWSLFNHSELSLLEESLKALPWDSLLENPQLVLLQAWLMQSQHRYGEVNTLLARAEHEIKDIREDTMHAEFNALRAQVAINDGNPDEAERLAKLALEELPPGWFYSRIVATSVLGEVLHCKGELTRSLALMQQTEQMARQHDVWHYALWSLIQQSEILFAQGFLQTAWETQEKAFQLINEQCLEQLPMHEFLVRIRAQLLWAWARLDEAEASARSGIEVLSSYQPQQQLQCLAMLIQCSLARGDLDNARSQLNRLENLLGNGKYHSDWISNANKVRVIYWQMTGDKAAAANWLRHTAKPEFANNHFLQGQWRNIARAQILLGEFEPAEIVLEELNENARSLRLMSDLNRNLLLLNQLYWQAGRKSDAQRVLLDALKLANRTGFISHFVIEGEAMAQQLRQLIQLNTLPELEQHRAQRILREINQHHRHKFAHFDENFVERLLNHPEVPELIRTSPLTQREWQVLGLIYSGYSNEQIAGELEVAATTIKTHIRNLYQKLGVAHRQDAVQHAQQLLKMMGYGV
notes: as for B2
B3: binds [6].

B4: His6-tagged MalT^M96T (natural protein, E. coli, UniProt P06993 1-901, looked up)
chain: MLIPSKLSRPVRLDHTVVRERLLAKLSGANNFRLALITSPAGYGKTTLISQWAAGKNDIGWYSLDEGDNQQERFASYLIAAVQQATNGHCAICETTAQKRQYASLTSLFAQLFIELAEWHSPLYLVIDDYHLITNPVIHESMRFFIRHQPENLTLVVLSRNLPQLGIANLRVRDQLLEIGSQQLAFTHQEAKQFFDCRLSSPIEAAESSRICDDVSGWATALQLIALSARQNTHSAHKSARRLAGINASHLSDYLVDEVLDNVDLATRHFLLKSAILRSMNDALITRVTGEENGQMRLEEIERQGLFLQRMDDTGEWFCYHPLFGNFLRQRCQWELAAELPEIHRAAAESWMAQGFPSEAIHHALAAGDALMLRDILLNHAWSLFNHSELSLLEESLKALPWDSLLENPQLVLLQAWLMQSQHRYGEVNTLLARAEHEIKDIREDTMHAEFNALRAQVAINDGNPDEAERLAKLALEELPPGWFYSRIVATSVLGEVLHCKGELTRSLALMQQTEQMARQHDVWHYALWSLIQQSEILFAQGFLQTAWETQEKAFQLINEQHLEQLPMHEFLVRIRAQLLWAWARLDEAEASARSGIEVLSSYQPQQQLQCLAMLIQCSLARGDLDNARSQLNRLENLLGNGKYHSDWISNANKVRVIYWQMTGDKAAAANWLRHTAKPEFANNHFLQGQWRNIARAQILLGEFEPAEIVLEELNENARSLRLMSDLNRNLLLLNQLYWQAGRKSDAQRVLLDALKLANRTGFISHFVIEGEAMAQQLRQLIQLNTLPELEQHRAQRILREINQHHRHKFAHFDENFVERLLNHPEVPELIRTSPLTQREWQVLGLIYSGYSNEQIAGELEVAATTIKTHIRNLYQKLGVAHRQDAVQHAQQLLKMMGYGV
notes: MalT, E. coli, His-tagged, pOM206 derivative; About 20% aggregated after purification without nucleotide; concentration was corrected for this; also called M96T variant
B4: binds [7].

B5: His6-tagged MalT^M96C (natural protein, E. coli, UniProt P06993 1-901, looked up)
chain: MLIPSKLSRPVRLDHTVVRERLLAKLSGANNFRLALITSPAGYGKTTLISQWAAGKNDIGWYSLDEGDNQQERFASYLIAAVQQATNGHCAICETCAQKRQYASLTSLFAQLFIELAEWHSPLYLVIDDYHLITNPVIHESMRFFIRHQPENLTLVVLSRNLPQLGIANLRVRDQLLEIGSQQLAFTHQEAKQFFDCRLSSPIEAAESSRICDDVSGWATALQLIALSARQNTHSAHKSARRLAGINASHLSDYLVDEVLDNVDLATRHFLLKSAILRSMNDALITRVTGEENGQMRLEEIERQGLFLQRMDDTGEWFCYHPLFGNFLRQRCQWELAAELPEIHRAAAESWMAQGFPSEAIHHALAAGDALMLRDILLNHAWSLFNHSELSLLEESLKALPWDSLLENPQLVLLQAWLMQSQHRYGEVNTLLARAEHEIKDIREDTMHAEFNALRAQVAINDGNPDEAERLAKLALEELPPGWFYSRIVATSVLGEVLHCKGELTRSLALMQQTEQMARQHDVWHYALWSLIQQSEILFAQGFLQTAWETQEKAFQLINEQHLEQLPMHEFLVRIRAQLLWAWARLDEAEASARSGIEVLSSYQPQQQLQCLAMLIQCSLARGDLDNARSQLNRLENLLGNGKYHSDWISNANKVRVIYWQMTGDKAAAANWLRHTAKPEFANNHFLQGQWRNIARAQILLGEFEPAEIVLEELNENARSLRLMSDLNRNLLLLNQLYWQAGRKSDAQRVLLDALKLANRTGFISHFVIEGEAMAQQLRQLIQLNTLPELEQHRAQRILREINQHHRHKFAHFDENFVERLLNHPEVPELIRTSPLTQREWQVLGLIYSGYSNEQIAGELEVAATTIKTHIRNLYQKLGVAHRQDAVQHAQQLLKMMGYGV
notes: as for B2
B5: binds [6].
